Reference: ChEMBL document CHEMBL2163233, “3-Oxoisoindoline-1-carboxamides: potent, state-dependent blockers of voltage-gated sodium channel Na(V)1.7 with efficacy in rat pain models” (J Med Chem, 2012)
Activity calls are given as the source filed them. The rule behind the calls is not given here.

How the values were obtained:
[1] = species on record: Rattus norvegicus; experiment: animal or person; conditions: Sprague-Dawley, po, read-out: INH
[2] = target: Voltage-dependent T-type calcium channel subunit alpha-1H (Homo sapiens) (UniProt O95180); conditions: 31.6 uM
[3] = species on record: Rattus norvegicus; conditions: Brain, Brain membranes, 10 uM
[4] = target: Muscarinic acetylcholine receptor M2 (Homo sapiens) (UniProt P08172); conditions: 10 uM
[5] = species on record: Rattus norvegicus; experiment: animal or person; conditions: Sprague-Dawley, po, read-out: INH; remark: listed apart in the source
[6] = species on record: Rattus norvegicus; experiment: animal or person; conditions: Sprague-Dawley, po, read-out: INH; remark: listed apart in the source
[7] = in vivo; conditions: Sprague-Dawley, rat, iv, 3 umol/kg
[8] = target: Alpha-2A adrenergic receptor (Homo sapiens) (UniProt P08913); conditions: 10 uM
[9] = target: 5-hydroxytryptamine receptor 2A (Homo sapiens) (UniProt P28223); conditions: 10 uM
Sequence of 5-hydroxytryptamine receptor 2A (Homo sapiens) (P28223 whole entry): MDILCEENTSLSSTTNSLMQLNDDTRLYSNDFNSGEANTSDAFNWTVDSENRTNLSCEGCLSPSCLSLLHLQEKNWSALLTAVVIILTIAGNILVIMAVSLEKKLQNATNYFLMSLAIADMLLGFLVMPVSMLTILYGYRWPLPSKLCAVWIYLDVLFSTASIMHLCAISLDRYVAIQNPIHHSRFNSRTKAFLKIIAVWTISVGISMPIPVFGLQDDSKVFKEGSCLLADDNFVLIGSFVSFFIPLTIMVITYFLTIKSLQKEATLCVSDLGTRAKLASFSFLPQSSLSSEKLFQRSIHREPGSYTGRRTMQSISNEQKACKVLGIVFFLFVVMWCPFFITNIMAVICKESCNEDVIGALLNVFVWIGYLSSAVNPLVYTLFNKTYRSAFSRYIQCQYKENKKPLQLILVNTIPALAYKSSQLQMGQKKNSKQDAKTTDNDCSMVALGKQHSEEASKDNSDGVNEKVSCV

[10] = in vivo; conditions: Sprague-Dawley, rat, po, 10 umol/kg
[11] = species on record: Rattus norvegicus; experiment: animal or person; conditions: Sprague-Dawley, po, read-out: INH; remark: listed apart in the source
[12] = in vivo; conditions: Sprague-Dawley, rat, po, 10 umol/kg; remark: listed apart in the source
[13] = species on record: Rattus norvegicus; experiment: animal or person; conditions: Sprague-Dawley, po, read-out: INH; remark: listed apart in the source
[14] = target: Glycine receptor subunit alpha-1 (Homo sapiens) (UniProt P23415); conditions: 33 uM
[15] = in vitro; conditions: Sprague-Dawley, rat, plasma
[16] = target: Estrogen receptor (Homo sapiens) (UniProt P03372); conditions: 10 uM
Sequence of Estrogen receptor (Homo sapiens) (P03372 whole entry): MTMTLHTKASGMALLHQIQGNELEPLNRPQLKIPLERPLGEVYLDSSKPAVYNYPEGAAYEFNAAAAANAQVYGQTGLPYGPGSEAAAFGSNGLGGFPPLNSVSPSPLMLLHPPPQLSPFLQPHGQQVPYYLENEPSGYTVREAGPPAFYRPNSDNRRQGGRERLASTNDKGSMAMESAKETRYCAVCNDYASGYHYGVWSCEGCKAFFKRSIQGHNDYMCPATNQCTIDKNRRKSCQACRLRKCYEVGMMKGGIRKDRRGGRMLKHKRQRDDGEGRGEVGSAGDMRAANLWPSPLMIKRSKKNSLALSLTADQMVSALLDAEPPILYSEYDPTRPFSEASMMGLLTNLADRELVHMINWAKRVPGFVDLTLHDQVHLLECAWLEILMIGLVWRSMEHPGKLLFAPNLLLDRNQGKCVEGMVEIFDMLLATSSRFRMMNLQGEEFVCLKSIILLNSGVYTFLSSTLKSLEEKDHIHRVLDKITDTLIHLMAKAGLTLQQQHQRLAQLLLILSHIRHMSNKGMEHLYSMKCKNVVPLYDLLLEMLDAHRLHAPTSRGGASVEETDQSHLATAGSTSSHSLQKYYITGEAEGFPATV

[17] = cells; conditions: Homo sapiens, HEK293
[18] = target: D(2) dopamine receptor (Homo sapiens) (UniProt P14416); conditions: 10 uM
[19] = species on record: Rattus norvegicus; experiment: animal or person; conditions: Sprague-Dawley, po, read-out: INH; remark: listed apart in the source
[20] = species on record: Rattus norvegicus; experiment: animal or person; conditions: Sprague-Dawley, po, read-out: INH; remark: listed apart in the source
[21] = target: Mu-type opioid receptor (Homo sapiens) (UniProt P35372); conditions: 10 uM
Sequence of Mu-type opioid receptor (Homo sapiens) (P35372 whole entry): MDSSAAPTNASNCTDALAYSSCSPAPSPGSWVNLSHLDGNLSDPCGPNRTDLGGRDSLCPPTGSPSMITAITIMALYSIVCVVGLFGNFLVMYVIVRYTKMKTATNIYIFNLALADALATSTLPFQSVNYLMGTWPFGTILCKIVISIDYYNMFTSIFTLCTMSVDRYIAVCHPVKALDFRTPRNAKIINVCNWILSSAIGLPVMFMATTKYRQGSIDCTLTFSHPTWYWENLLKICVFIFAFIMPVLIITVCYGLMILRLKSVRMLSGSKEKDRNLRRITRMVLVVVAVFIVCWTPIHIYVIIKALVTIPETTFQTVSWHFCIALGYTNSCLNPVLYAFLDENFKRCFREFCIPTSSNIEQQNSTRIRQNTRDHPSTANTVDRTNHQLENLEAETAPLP

[22] = in vivo; conditions: Sprague-Dawley, rat, po, 10 umol/kg; remark: listed apart in the source
[23] = target: Nitric oxide synthase 3 (Homo sapiens) (UniProt P29474); conditions: 10 uM
[24] = target: Beta-1 adrenergic receptor (Homo sapiens) (UniProt P08588); conditions: 10 uM
Sequence of Beta-1 adrenergic receptor (Homo sapiens) (P08588 whole entry, looked up): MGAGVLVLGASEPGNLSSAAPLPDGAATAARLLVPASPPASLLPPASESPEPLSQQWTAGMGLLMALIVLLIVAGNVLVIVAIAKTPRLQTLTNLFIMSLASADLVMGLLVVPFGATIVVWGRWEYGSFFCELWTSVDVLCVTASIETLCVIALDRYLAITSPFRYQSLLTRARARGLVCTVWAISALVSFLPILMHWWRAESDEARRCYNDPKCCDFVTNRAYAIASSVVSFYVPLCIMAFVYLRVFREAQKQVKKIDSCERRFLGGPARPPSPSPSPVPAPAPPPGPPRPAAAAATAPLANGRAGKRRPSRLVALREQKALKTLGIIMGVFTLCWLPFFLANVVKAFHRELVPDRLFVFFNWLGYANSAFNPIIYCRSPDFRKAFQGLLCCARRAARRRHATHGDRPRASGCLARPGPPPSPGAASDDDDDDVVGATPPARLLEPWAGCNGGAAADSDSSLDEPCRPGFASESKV

[25] = species on record: Rattus norvegicus; experiment: animal or person; conditions: Sprague-Dawley, po, read-out: INH; remark: listed apart in the source
[26] = in vivo; conditions: Sprague-Dawley, rat, brain/plasma
[27] = in vivo; conditions: Sprague-Dawley, rat, po, 10 umol/kg; remark: listed apart in the source
[28] = target: Alpha-1D adrenergic receptor (Homo sapiens) (UniProt P25100); conditions: 10 uM
Sequence of Alpha-1D adrenergic receptor (Homo sapiens) (P25100 whole entry): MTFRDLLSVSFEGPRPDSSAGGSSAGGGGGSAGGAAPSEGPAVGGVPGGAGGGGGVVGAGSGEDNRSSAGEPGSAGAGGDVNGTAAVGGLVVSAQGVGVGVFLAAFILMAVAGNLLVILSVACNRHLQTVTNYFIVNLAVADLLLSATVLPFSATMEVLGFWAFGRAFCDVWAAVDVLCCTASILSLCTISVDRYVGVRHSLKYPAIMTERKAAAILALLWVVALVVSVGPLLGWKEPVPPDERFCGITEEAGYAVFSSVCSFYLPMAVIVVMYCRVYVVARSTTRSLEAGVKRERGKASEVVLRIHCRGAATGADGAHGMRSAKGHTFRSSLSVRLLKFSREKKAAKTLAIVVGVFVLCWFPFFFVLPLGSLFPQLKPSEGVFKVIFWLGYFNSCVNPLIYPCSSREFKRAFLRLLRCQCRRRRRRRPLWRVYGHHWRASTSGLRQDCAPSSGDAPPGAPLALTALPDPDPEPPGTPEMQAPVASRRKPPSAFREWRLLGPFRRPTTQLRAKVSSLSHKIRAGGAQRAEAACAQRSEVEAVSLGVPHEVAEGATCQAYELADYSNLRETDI

[29] = target: Insulin receptor (Homo sapiens) (UniProt P06213); conditions: 10 uM
[30] = target: Histamine H1 receptor (Homo sapiens) (UniProt P35367); conditions: 10 uM
Sequence of Histamine H1 receptor (Homo sapiens) (P35367 whole entry): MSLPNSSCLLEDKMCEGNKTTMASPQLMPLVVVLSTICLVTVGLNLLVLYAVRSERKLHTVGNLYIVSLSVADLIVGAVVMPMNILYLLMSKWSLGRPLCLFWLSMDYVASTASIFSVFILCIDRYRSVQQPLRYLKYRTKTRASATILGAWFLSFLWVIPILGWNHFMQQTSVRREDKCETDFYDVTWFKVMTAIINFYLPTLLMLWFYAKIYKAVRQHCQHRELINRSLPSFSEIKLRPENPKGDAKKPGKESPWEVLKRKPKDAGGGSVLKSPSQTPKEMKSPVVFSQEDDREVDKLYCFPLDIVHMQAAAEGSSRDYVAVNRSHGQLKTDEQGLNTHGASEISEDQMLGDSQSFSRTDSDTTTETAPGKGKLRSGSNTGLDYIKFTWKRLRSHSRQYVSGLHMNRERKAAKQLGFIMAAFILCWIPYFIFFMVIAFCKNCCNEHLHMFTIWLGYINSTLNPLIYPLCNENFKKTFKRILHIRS

[31] = target: Prostaglandin G/H synthase 1 (Homo sapiens) (UniProt P23219); conditions: 10 uM
[32] = target: Sodium-dependent noradrenaline transporter (Homo sapiens) (UniProt P23975); conditions: 10 uM
[33] = target: Acetylcholinesterase (Homo sapiens) (UniProt P22303); conditions: 10 uM
Sequence of Acetylcholinesterase (Homo sapiens) (P22303 whole entry): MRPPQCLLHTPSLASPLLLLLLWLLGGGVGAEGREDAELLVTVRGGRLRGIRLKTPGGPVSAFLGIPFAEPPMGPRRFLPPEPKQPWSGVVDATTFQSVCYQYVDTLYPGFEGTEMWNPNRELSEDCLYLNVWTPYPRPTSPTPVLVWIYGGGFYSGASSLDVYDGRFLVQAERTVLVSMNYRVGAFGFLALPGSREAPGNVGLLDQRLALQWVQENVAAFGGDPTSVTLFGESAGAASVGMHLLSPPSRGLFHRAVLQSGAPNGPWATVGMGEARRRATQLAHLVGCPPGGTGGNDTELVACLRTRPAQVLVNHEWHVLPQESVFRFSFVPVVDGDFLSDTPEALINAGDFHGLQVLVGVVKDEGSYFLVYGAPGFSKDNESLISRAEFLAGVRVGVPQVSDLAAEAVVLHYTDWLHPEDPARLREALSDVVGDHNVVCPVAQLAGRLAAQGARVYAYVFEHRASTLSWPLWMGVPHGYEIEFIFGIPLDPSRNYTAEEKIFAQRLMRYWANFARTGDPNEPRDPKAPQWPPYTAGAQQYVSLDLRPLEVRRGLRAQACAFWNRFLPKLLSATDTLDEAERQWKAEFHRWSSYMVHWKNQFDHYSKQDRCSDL

[34] = target: Transient receptor potential cation channel subfamily A member 1 (Homo sapiens) (UniProt O75762); conditions: 11 uM
Sequence of Transient receptor potential cation channel subfamily A member 1 (Homo sapiens) (O75762 whole entry): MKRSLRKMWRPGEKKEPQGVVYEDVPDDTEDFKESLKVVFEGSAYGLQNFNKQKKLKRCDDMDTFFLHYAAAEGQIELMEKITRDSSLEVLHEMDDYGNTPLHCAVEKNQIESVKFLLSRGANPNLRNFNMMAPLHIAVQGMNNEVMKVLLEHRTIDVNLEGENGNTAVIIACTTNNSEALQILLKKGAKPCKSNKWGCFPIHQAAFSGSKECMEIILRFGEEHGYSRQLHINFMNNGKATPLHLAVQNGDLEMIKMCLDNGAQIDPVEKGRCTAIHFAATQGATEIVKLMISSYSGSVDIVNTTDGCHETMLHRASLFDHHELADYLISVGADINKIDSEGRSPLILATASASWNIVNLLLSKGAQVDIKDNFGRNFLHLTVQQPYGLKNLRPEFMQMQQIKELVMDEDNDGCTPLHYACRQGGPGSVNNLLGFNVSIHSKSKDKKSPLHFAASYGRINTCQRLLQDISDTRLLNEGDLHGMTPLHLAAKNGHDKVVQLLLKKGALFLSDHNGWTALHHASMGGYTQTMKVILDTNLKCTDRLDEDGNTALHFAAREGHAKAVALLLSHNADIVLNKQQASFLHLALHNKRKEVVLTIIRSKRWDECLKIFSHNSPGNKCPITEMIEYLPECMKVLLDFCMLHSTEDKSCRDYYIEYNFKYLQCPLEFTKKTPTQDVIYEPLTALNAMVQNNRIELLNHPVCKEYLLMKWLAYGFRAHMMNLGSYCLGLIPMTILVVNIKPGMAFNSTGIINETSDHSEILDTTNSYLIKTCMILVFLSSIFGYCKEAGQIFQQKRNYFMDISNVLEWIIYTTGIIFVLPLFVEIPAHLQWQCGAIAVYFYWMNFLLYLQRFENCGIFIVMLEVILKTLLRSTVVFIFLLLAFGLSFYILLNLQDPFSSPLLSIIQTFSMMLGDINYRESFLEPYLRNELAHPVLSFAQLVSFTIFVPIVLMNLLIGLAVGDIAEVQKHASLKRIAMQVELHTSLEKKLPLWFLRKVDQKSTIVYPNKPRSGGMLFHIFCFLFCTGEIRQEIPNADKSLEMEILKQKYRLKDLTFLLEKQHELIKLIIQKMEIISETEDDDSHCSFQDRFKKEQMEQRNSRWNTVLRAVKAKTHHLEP

[35] = in vivo; conditions: Sprague-Dawley, rat, po, 10 umol/kg; remark: listed apart in the source
[36] = target: Potassium voltage-gated channel subfamily KQT member 2 (Homo sapiens) (UniProt O43526); conditions: 10 uM
[37] = in vitro; conditions: human, microsomes, CLH
[38] = in vivo; conditions: Sprague-Dawley, rat, iv, 3 umol/kg; remark: listed apart in the source
[39] = in vitro; conditions: rat, microsomes, CLH
[40] = target: Potassium voltage-gated channel subfamily A member 5 (Homo sapiens) (UniProt P22460); conditions: 10 uM
[41] = in vivo; conditions: Sprague-Dawley, rat, iv, 3 umol/kg; remark: listed apart in the source
[42] = in vivo; conditions: Sprague-Dawley, rat, iv, 3 umol/kg; remark: listed apart in the source

Row | SMILES | inhibition [2] | inhibition [3] [%] | inhibition [4] | inhibition in vivo at 100 µmol/kg [5] [%] | inhibition in vivo at 30 µmol/kg [6] [%] | AUC [7] [µM·h] | inhibition [8] | inhibition [9] | Tmax [10] [h] | inhibition in vivo at 100 µmol/kg [11] [%] | AUC [12] [µM·h] | inhibition in vivo at 100 µmol/kg [13] [%] | inhibition [14] | fraction unbound [15] | inhibition [16] | IC50 [17] [µM] | inhibition [18] | inhibition in vivo at 140 µmol/kg [20] [%] | inhibition [21] | bioavailability [22] [%] | also measured
1 | O=C(NCc1ccc(OC(F)(F)F)cc1)C1c2ccccc2C(=O)N1CCc1ccccn1 (stereo in doubt; 16A) | 44% | 100 | inactive | 56 | 26 | 1.7 | inactive | inactive | 0.5 | 42 | 2.1 | 44 | inactive | 0.045 | inactive | 10 | inactive | 84 | inactive | 37 | inhibition in vivo at 140 µmol/kg [1]: 53%; inhibition in vivo at 30 µmol/kg [19]: 35%; inhibition [23]: inactive; inhibition [24]: inactive; inhibition in vivo at 30 µmol/kg [25]: 25%; Kp [26]: 2; half-life [27]: 5.9 h; inhibition [28]: inactive; inhibition [29]: inactive; inhibition [30]: inactive; inhibition [31]: inactive; inhibition [32]: inactive; inhibition [33]: inactive; inhibition [34]: inactive; Cmax [35]: 600 nM
2 | O=C(NCc1ccc(OC(F)(F)F)cc1)C1c2ccccc2C(=O)N1C1CCOCC1 (single isomer, unassigned; enantiomer 2) | inactive | 79 | inactive | 54 | 16 | 1.7 | inactive | inactive | 0.3 | 42 | 1.1 | 65 | inactive | 0.132 | inactive | > 33 | inactive | 30 | inactive | 20 | inhibition [36]: inactive; inhibition [23]: inactive; inhibition [24]: inactive; inhibition in vivo at 30 µmol/kg [25]: 34%; Kp [26]: 1; half-life [27]: 1.9 h; microsomal CLint [37]: 15 µL/min/mg; inhibition [28]: inactive; inhibition [29]: inactive; inhibition [30]: inactive; inhibition [31]: inactive; half-life [38]: 1 h; inhibition [32]: inactive; inhibition [33]: inactive; inhibition [34]: inactive; Cmax [35]: 600 nM; microsomal CLint [39]: < 10 µL/min/mg; inhibition [40]: inactive; Vd [41]: 0.8 L/kg; clearance [42]: 30 mL/min/kg
